Data published in patent US20200024278A1, “COMPOSITION COMPRISING ANTIBIOTIC COMPOUND AND AN HETEROCYCLIC COMPOUND AND THEIR USE IN PREVENTING OR TREATING BACTERIAL INFECTIONS” (MUTABILIS, priority 2016, published 2020).

How the values were obtained:
Assay in all cases: MIC, broth microdilution (CLSI), substance alone or ATB combined with compound at 4 or 8 μg/mL
[1] = tested on: ECO UFR39; type: cell-based, E. coli; conditions: ECO UFR39; for MIC ATB combined with compound: compound @4 μg/ml
Outline: (§1)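 Growth inhibition endpoint, read visually after 16-20 h at 35° C in ambient air. Cation-adjusted Mueller-Hinton broth, inoculum 5·10^5 CFU/mL, CLSI M7-A7 protocol.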

[2] = tested on: ECO 190317; type: cell-based, E. coli; conditions: ECO 190317; for MIC ATB combined with compound: compound @4 μg/ml
Outline: as §1

[3] = tested on: KPN UFR42; type: cell-based, K. pneumoniae; conditions: KPN UFR42; for MIC ATB combined with compound: compound @4 μg/ml
Outline: as §1

[4] = tested on: KPN BAA-1898; type: cell-based, K. pneumoniae; conditions: KPN BAA-1898; for MIC ATB combined with compound: compound @4 μg/ml
Outline: as §1

[5] = tested on: KPN 6299; type: cell-based, K. pneumoniae; conditions: compound @4 μg/ml
Outline: as §1

[6] = tested on: ECL P99; type: cell-based, E. cloacae; conditions: ECL P99; for MIC ATB combined with compound: compound @4 μg/ml
Outline: as §1

[7] = tested on: SPN 49619; type: cell-based, S. pneumoniae; conditions: SPN 49619; for MIC ATB combined with compound: compound @4 μg/ml
Outline: as §1

[8] = tested on: SAU 29213; type: cell-based, S. aureus; conditions: for MIC ATB combined with compound: compound @4 μg/ml, SAU 29213
Outline: as §1

[9] = tested on: PAE 105250; type: cell-based, P. aeruginosa; conditions: PAE 105250; for MIC ATB combined with compound: compound @4 μg/ml
Outline: as §1

[10] = tested on: PAE UFR48; type: cell-based, P. aeruginosa; conditions: PAE UFR48; for MIC ATB combined with compound: compound @4 μg/ml
Outline: as §1

[11] = tested on: PAE UFR90; type: cell-based, P. aeruginosa; conditions: PAE UFR90; for MIC ATB combined with compound: compound @4 μg/ml
Outline: as §1

## NC[C@@H]1CC(=NOCC(N)=O)[C@@H]2CN1C(=O)N2OS(=O)(=O)[O-].O=C(O)C(F)(F)F.[Na+] [Example 4, 2,2,2-trifluroacetate and sodium [(2S,5S)-4-(2-amino-2-oxo-ethoxy)imino-2-(azaniumylmethyl)-7-oxo-1,6-diazabicyclo[3.2.1]octan-6-yl] sulfate]
[1]; ATB ATM
  MIC ATB combined with compound: <0.031 mg/L
[1]; ATB FEP
  MIC ATB combined with compound: <0.031 mg/L
[1]; ATB FOS
  MIC ATB combined with compound: <0.125 mg/L
[1]; ATB MEM
  MIC ATB combined with compound: <0.031 mg/L
[1]; ATB PIP
  MIC ATB combined with compound: 0.063 mg/L
[1]; substance alone
  MIC: 0.25 mg/L
[2]; ATB ATM
  MIC ATB combined with compound: <0.031 mg/L
[2]; ATB FEP
  MIC ATB combined with compound: <0.031 mg/L
[2]; ATB FOS
  MIC ATB combined with compound: <0.125 mg/L
[2]; ATB MEM
  MIC ATB combined with compound: <0.031 mg/L
[2]; ATB PIP
  MIC ATB combined with compound: <0.031 mg/L
[2]; substance alone
  MIC: 0.25 mg/L
[3]; ATB ATM
  MIC ATB combined with compound: 1 mg/L
[3]; ATB FEP
  MIC ATB combined with compound: >32 mg/L
[3]; ATB FOS
  MIC ATB combined with compound: 32 mg/L
[3]; ATB MEM
  MIC ATB combined with compound: >32 mg/L
[3]; ATB PIP
  MIC ATB combined with compound: >32 mg/L
[3]; substance alone
  MIC: >32 mg/L
[4]; ATB ATM
  MIC ATB combined with compound: 8 mg/L
[4]; ATB FEP
  MIC ATB combined with compound: 0.5 mg/L
[4]; ATB FOS
  MIC ATB combined with compound: 32 mg/L
[4]; ATB MEM
  MIC ATB combined with compound: 0.5 mg/L
[4]; ATB PIP
  MIC ATB combined with compound: >32 mg/L
[4]; substance alone
  MIC: >32 mg/L
[5]; ATB ATM
  MIC ATB combined with compound: 0.063 mg/L
[5]; ATB FEP
  MIC ATB combined with compound: 0.125 mg/L
[5]; ATB FOS
  MIC ATB combined with compound: 64 mg/L
[5]; ATB MEM
  MIC ATB combined with compound: 0.25 mg/L
[5]; ATB PIP
  MIC ATB combined with compound: 4 mg/L
[6]; ATB ATM
  MIC ATB combined with compound: <0.031 mg/L
[6]; ATB FEP
  MIC ATB combined with compound: <0.031 mg/L
[6]; ATB FOS
  MIC ATB combined with compound: <0.125 mg/L
[6]; ATB MEM
  MIC ATB combined with compound: <0.031 mg/L
[6]; ATB PIP
  MIC ATB combined with compound: <=0.031 μg/mL
[6]; substance alone
  MIC: 0.063 mg/L
[7]; ATB ATM
  MIC ATB combined with compound: >32 mg/L
[7]; ATB FEP
  MIC ATB combined with compound: 0.063 mg/L
[7]; ATB FOS
  MIC ATB combined with compound: 32 mg/L
[7]; ATB MEM
  MIC ATB combined with compound: 0.063 mg/L
[7]; ATB PIP
  MIC ATB combined with compound: 0.5 mg/L
[7]; substance alone
  MIC: 32 mg/L
[8]; ATB ATM
  MIC ATB combined with compound: >32 mg/L
[8]; ATB FEP
  MIC ATB combined with compound: 4 mg/L
[8]; ATB FOS
  MIC ATB combined with compound: 2 mg/L
[8]; ATB MEM
  MIC ATB combined with compound: 0.125 mg/L
[8]; ATB PIP
  MIC ATB combined with compound: 4 mg/L
[8]; substance alone, SAU 29213 (MSSA 29213)
  MIC: >32 mg/L
[9]; ATB ATM
  MIC ATB combined with compound: <0.031 mg/L
[9]; ATB FEP
  MIC ATB combined with compound: <=0.031 μg/mL
[9]; ATB FOS
  MIC ATB combined with compound: 8 mg/L
[9]; ATB MEM
  MIC ATB combined with compound: <0.031 mg/L
[9]; ATB PIP
  MIC ATB combined with compound: <=0.031 μg/mL
[9]; substance alone
  MIC: 32 mg/L
[10]; ATB ATM
  MIC ATB combined with compound: <0.031 mg/L
[10]; ATB FEP
  MIC ATB combined with compound: <0.031 mg/L
[10]; ATB FOS
  MIC ATB combined with compound: <0.125 mg/L
[10]; ATB MEM
  MIC ATB combined with compound: <0.031 mg/L
[10]; ATB PIP
  MIC ATB combined with compound: <0.031 mg/L
[10]; substance alone
  MIC: 4 mg/L
[11]; ATB ATM
  MIC ATB combined with compound: <0.031 mg/L
[11]; ATB FEP
  MIC ATB combined with compound: <0.031 mg/L
[11]; ATB FOS
  MIC ATB combined with compound: <0.125 mg/L
[11]; ATB MEM
  MIC ATB combined with compound: <0.031 mg/L
[11]; ATB PIP
  MIC ATB combined with compound: <0.031 mg/L
[11]; substance alone
  MIC: 2 mg/L
